According to article PMC12606464, “Investigating NFE2L1 activators for targeted protein aggregate clearance: a follow-up study” (RSC Medicinal Chemistry, 2025):

Test system: chymotrypsin-like activity of the 26S proteasome
Assay: Proteasome activity assay in HEK293 cell lysates
Format: cell-based, human
Conditions: 7.5 μM, 16 h; for Proteasome chymotrypsin-like activity, geometric mean (treatment): HEK293 lysates, 37 °C, DMSO control = 1; for Proteasome chymotrypsin-like activity, geometric mean of ratios: treatment/control, ratio paired t test, HEK293
Procedure: Building on previous findings, we investigated how selected RUN compounds influence proteasomal function itself. Specifically, we examined the chymotrypsin-like activity of the 26S proteasome following a 16 hour treatment with 7.5 μM RUN compounds in the HEK293 cell line. […] In addition, two other cell lines, MCF7 and SH-SY5Y, were measured (see the SI, Fig. S6).
Fig. 3 (A) HEK293 cells were treated with RUN compounds at a concentration of 7.5 μM for 16 hours. DMSO was used as a vehicle control. Proteasome chymotrypsin-like activity was measured in cell lysates at 37 °C. Data came from three biological replicates (n = 3). Statistical analysis was done using ratio paired t-tests corrected for multiple comparisons with Holm–Šídák's method (α = 0.05). *p < 0.05. Detailed results of the analysis are shown in SI Table S7. (B) RUN-89 protects against polyQ-mediated toxicity in an NFE2L1-dependent manner. HCT116 parental cells (WT) and two independent DDI2 knockout clones (KO 04 and KO 11), in which NFE2L1 activation is impaired, were transiently transfected with plasmids encoding non-aggregating EGFP-HttQ23 or aggregation-prone EGFP-HttQ74. Cells were treated with 1 or 3 μM RUN-89 for 48 hours, and viability was measured using the alamarBlue assay. […] Data are shown as the Geomean ± GeoSD from four independent biological replicates (n = 4). Statistical analysis was performed on log2-transformed values using two-way repeated-measures ANOVA followed by Šídak's multiple comparison test. (C right) Parental SH-SY5Y cells (without α-synuclein expression) were treated in the same manner. (C left) The protective effect of RUN compounds was assessed by rotenone-induced α-synuclein proteotoxicity in SH-SY5Y cells, which mimics the PD-like phenotype. Cells were pre-treated with increasing concentrations of RUN compounds (0.312, 0.625, 1.25, and 2.5 μM) for 4 hours and then rotenone (1.125 μM) treatment was done for 24 hours. […]
2.7 Proteasome activity assay
The corresponding cell lines (HEK293, MCF7, or SH-SY5Y) were seeded into 6-well plates and allowed to adhere overnight under standard culture conditions. On the following day, HEK293 cells were treated with 7.5 µM RUN compounds, whereas MCF7 and SH-SY5Y cells were treated with 5 µM RUN compounds, for 16 hours each. After treatment, cells were harvested, resuspended in lysis buffer (50 mM HEPES, pH 7.5; 5 mM EDTA; 150 mM NaCl; 2 mM ATP; 1% Triton), and centrifuged at 15,000 rpm for 15 minutes at 4 °C. The resulting lysates (25 µg total protein) were incubated with 200 µM of the fluorogenic substrate Suc-Leu-Leu-Val-Tyr-AMC (Bachem, I1395) in assay buffer (50 mM Tris, pH 8.0; 10 mM MgCl₂; 1 mM ATP; 1 mM DTT) at 37 °C. Free AMC release was detected by measuring fluorescence at 360/460 nm. […]
HEK293 cells were seeded in 6-well plates and incubated for 24 hours before being transfected with a plasmid containing the CMV-XBP-Gluc reporter using Lipofectamine 2000.(4) After 6 hours, the transfected cells were subsequently transferred to 384-well plates, stabilized overnight, and treated with the proteasome inhibitor and ER stress inducer MG132 and/or various concentrations of RUN compounds (1, 5, and 10 µM) or vehicle (DMSO) for 16 hours. Luciferase activity was normalized to cell viability, which was assessed using the alamarBlue assay. The results are expressed as the fold change compared with the DMSO control, with the experiment conducted in biological triplicate. […]

Row | Compound | Proteasome chymotrypsin-like activity, geometric mean (treatment) | Proteasome chymotrypsin-like activity, geometric mean of ratios
1 | COc1ccc(/C=C2\CC(N)C/C(=C\c3ccc(OC)c(OC)c3)C2=O)cc1OC (centres unmarked) [RUN-81] | 1.21 | 1.21
2 | COc1ccc(/C=C2\CC(NC(=O)C3CCCC3)C/C(=C\c3ccc(OC)c(OC)c3)C2=O)cc1OC (centres unmarked) [RUN-89] |  | 1.36
3 | COc1ccc(/C=C2\CC(NC(=O)c3ccccn3)C/C(=C\c3ccc(OC)c(OC)c3)C2=O)cc1OC (centres unmarked) [RUN-94] | 1.21 | 1.21
